A word on the IC50: it is the concentration needed to halve the response being measured.

SMILES strings stand for the structures. A value given as a limit tells only on which side of the number the result lay.

The assay concerns JIMT-1 cells. The assay is described as follows: JIMT-1 cell growth inhibition / cell viability (SRB assay). The class given is cell-based. Particulars: Homo sapiens; JIMT-1 cells; read-out: IC50. On the procedure: The ability of the compounds of the present disclosure to treat TACC3-mediated cancers, or associated symptoms or complications thereof, was determined using the following procedures. The compounds of the present disclosure were tested for their activity against cell death induction using a JIMT-1 cell line, which was a cell line having high level of TACC3. The concentration of each compound that was required for half-maximal inhibition of cell proliferation was calculated by a GraphPad Prism (GraphPad Software).
Background: In SRB staining, fixed cells bind dye roughly in proportion to their protein.
`COc1cccc(-c2cc(Nc3ccnc(N4CCOCC4)n3)on2)c1` [Compound 6, 3-(3-methoxyphenyl)-N-(2-morpholinopyrimidin-4-yl)isoxazol-5-amine]: the IC50 stood at 3.44 µM.

For the molecule `COc1ccccc1-c1cc(Nc2ccnc(N3CCOCC3)n2)on1` [Compound 7, 3-(2-methoxyphenyl)-N-(2-morpholinopyrimidin-4-yl)isoxazol-5-amine], the 50% inhibitory concentration (IC50) stood at 8.27 µM. `c1ccc(-c2cc(Nc3ccnc(N4CCOCC4)n3)on2)cc1` [Compound 8, N-(2-morpholinopyrimidin-4-yl)-3-phenylisoxazol-5-amine]: the IC50 is over 10 µM. With `CCOc1ccc(-c2cc(Nc3ccnc(N4CCOCC4)n3)on2)cc1` [Compound 9, 3-(4-ethoxyphenyl)-N-(2-morpholinopyrimidin-4-yl)isoxazol-5-amine], the concentration for half-maximal inhibition (IC50) is 0.81 µM. The figure for `CCCOc1ccc(-c2cc(Nc3ccnc(N4CCOCC4)n3)on2)cc1` [Compound 10, N-(2-morpholinopyrimidin-4-yl)-3-(4-propoxyphenyl)isoxazol-5-amine] is over 10 µM. For `Fc1ccc(-c2cc(Nc3ccnc(N4CCOCC4)n3)on2)cc1` [Compound 11, 3-(4-fluorophenyl)-N-(2-morpholinopyrimidin-4-yl)isoxazol-5-amine], the concentration for half-maximal inhibition (IC50) was over 10 µM. The figure for `Clc1ccc(-c2cc(Nc3ccnc(N4CCOCC4)n3)on2)cc1` [Compound 12, 3-(4-chlorophenyl)-N-(2-morpholinopyrimidin-4-yl)isoxazol-5-amine] is over 10 µM. As for `Cc1ccc(-c2cc(Nc3ccnc(N4CCOCC4)n3)on2)cc1` [Compound 13, N-(2-morpholinopyrimidin-4-yl)-3-(p-tolyl)isoxazol-5-amine], the figure is 0.64 µM.

As for `CCc1ccc(-c2cc(Nc3ccnc(N4CCOCC4)n3)on2)cc1` [Compound 14, 3-(4-ethylphenyl)-N-(2-morpholinopyrimidin-4-yl)isoxazol-5-amine], the half-inhibitory concentration (IC50) amounted to 0.259 µM.

`CC(C)c1ccc(-c2cc(Nc3ccnc(N4CCOCC4)n3)on2)cc1` [Compound 15, 3-(4-isopropylphenyl)-N-(2-morpholinopyrimidin-4-yl)isoxazol-5-amine]: the IC50 worked out at 3.61 µM. As for `FC(F)(F)c1ccc(-c2cc(Nc3ccnc(N4CCOCC4)n3)on2)cc1` [Compound 16, N-(2-morpholinopyrimidin-4-yl)-3-(4-(trifluoromethyl)phenyl)isoxazol-5-amine], the figure is over 10 µM; as for `CC(F)(F)c1ccc(-c2cc(Nc3ccnc(N4CCOCC4)n3)on2)cc1` [Compound 17, 3-(4-(1,1-difluoroethyl)phenyl)-N-(2-morpholinopyrimidin-4-yl)isoxazol-5-amine], over 10 µM. As for `FC(F)Oc1ccc(-c2cc(Nc3ccnc(N4CCOCC4)n3)on2)cc1` [Compound 18, 3-(4-(difluoromethoxy)phenyl)-N-(2-morpholinopyrimidin-4-yl)isoxazol-5-amine], the figure is 4.23 µM; as for `FC(F)(F)Oc1ccc(-c2cc(Nc3ccnc(N4CCOCC4)n3)on2)cc1` [Compound 19, N-(2-morpholinopyrimidin-4-yl)-3-(4-(trifluoromethoxy)phenyl)isoxazol-5-amine], over 10 µM; as for `CSc1ccc(-c2cc(Nc3ccnc(N4CCOCC4)n3)on2)cc1` [Compound 20, 3-(4-(methylthio)phenyl)-N-(2-morpholinopyrimidin-4-yl)isoxazol-5-amine], 0.03 µM. As for `CN(C)c1ccc(-c2cc(Nc3ccnc(N4CCOCC4)n3)on2)cc1` [Compound 21, 3-(4-(dimethylamino)phenyl)-N-(2-morpholinopyrimidin-4-yl)isoxazol-5-amine], the figure is 0.12 µM; as for `COc1ccc(-c2cc(Nc3ccnc(N4CCOCC4)n3)on2)cc1F` [Compound 22, 3-(3-fluoro-4-methoxyphenyl)-N-(2-morpholinopyrimidin-4-yl)isoxazol-5-amine], 0.013 µM. On to `COc1ccc(-c2cc(Nc3ccnc(N4CCOCC4)n3)on2)cc1Cl` [Compound 23, 3-(3-chloro-4-methoxyphenyl)-N-(2-morpholinopyrimidin-4-yl)isoxazol-5-amine], for which the IC50 came out at 0.48 µM.
